Data reported in patent publication US20240122834A1, “MEDICAMENT FOR PREVENTION AND TREATMENT OF HYPERPIGMENTATION” (SYMRISE AG, priority 2021, published 2024).

Tested on: tyrosinase activity in B16 melanoma cells
Assay: Tyrosinase activity in B16 melanoma cells (lysate, L-dopa to dopachrome, absorbance 475 nm)
Format: cell-based
Settings: B16 cells treated for 3 days, untreated control = 100
From the text: Tyrosinase is an oxidase that is the rate-limiting enzyme for controlling the production of melanin. The enzyme is mainly involved in two distinct reactions of melanin synthesis; firstly, the hydroxylation of a monophenol and secondly, the conversion of an o-diphenol to the corresponding o-quinone. o-quinone undergoes several reactions to eventually form melanin Tyrosinase is a copper-containing enzyme present in plant and animal tissues that catalyzes the production of melanin and other pigments from tyrosine by oxidation. It is found inside melanosomes which are synthesized in the skin melanocytes. In humans, the tyrosinase enzyme is encoded by the TYR gene.
To measure the tyrosinase activity of the cells, the B16 cells treated for 3 days with several doses of compounds were lysed by incubation at 4° C. for 30 min in lysis buffer (20 mM sodium phosphate, pH 6.8, 1% Triton X-100, 1 mM PMSF, 1 mM EDTA) containing protease inhibitors cocktail. The lysates were centrifuged at 15,000×g for 10 min to obtain the supernatant as the source of tyrosinase. The reaction mixture contained 20 mM phosphate buffer, pH 6.8, 1.25 mM L-dopa (Sigma-Aldrich). After incubation at 37° C. for 2 h, dopachrome formation was monitored by measuring absorbance at a wavelength of 475 nm in a microplate reader (TECAN).

SMILES	Tyrosinase Activation (sample conc. 10 μg/ml)	Tyrosinase Activation (sample conc. 1 μg/ml)	other results
COC(Cc1ccccc1)OC [Phenyl acetaldehyde dimethyl acetal]	80%	–	Tyrosinase Activation (sample conc. 100 μg/ml): 78%
CCCCCc1cc(O)c(C/C=C(\C)CCC=C(C)C)c(O)c1 [(−) CBG]	–	55%	Tyrosinase Activation (sample conc. 0.5 μg/ml): 62%
CC(=O)CCc1ccccc1 [Benzyl acetone]	–	–	Tyrosinase Activation (sample conc. 5 μg/ml): 90%; Tyrosinase Activation (sample conc. 25 μg/ml): 80%; Tyrosinase Activation (sample conc. 100 μg/ml): 90%
C=CCOC(=O)COc1ccccc1 [Allyl phenoxyacetate]	50%	62%	Tyrosinase Activation (sample conc. 50 μg/ml): 48%
O=Cc1ccccc1 [Benzaldehyde]	75%	–	–
CCCCCCCCCCCC=O [Aldehyde C12]	–	82%	Tyrosinase Activation (sample conc. 0.1 μg/ml): 78%
C=CCOC(=O)COC1CCCCC1 [Cyclogalbanate]	73%	–	–
CC(=O)OC1CC(C)CC(C)(C)C1 (stereo not shown) [Mintonat, Homomenthyl acetate]	–	80%	–
CC(C)=CCC(C)(C)C(=O)C(C)C [Claritone]	–	–	Tyrosinase Activation (sample conc. 2.5 μg/ml): 70%
